These results are taken from patent US10316049B2, “Tank-binding kinase inhibitor compounds” (Gilead Sciences, Inc., priority 2015, dated 2019).

One experiment concerns the target T1, IKKε (Homo sapiens, UniProt Q14164).
T1 construct: TBK1 and IKKε were expressed and purified as full length recombinant proteins; made in house
T1 sequence (Q14164 1-716): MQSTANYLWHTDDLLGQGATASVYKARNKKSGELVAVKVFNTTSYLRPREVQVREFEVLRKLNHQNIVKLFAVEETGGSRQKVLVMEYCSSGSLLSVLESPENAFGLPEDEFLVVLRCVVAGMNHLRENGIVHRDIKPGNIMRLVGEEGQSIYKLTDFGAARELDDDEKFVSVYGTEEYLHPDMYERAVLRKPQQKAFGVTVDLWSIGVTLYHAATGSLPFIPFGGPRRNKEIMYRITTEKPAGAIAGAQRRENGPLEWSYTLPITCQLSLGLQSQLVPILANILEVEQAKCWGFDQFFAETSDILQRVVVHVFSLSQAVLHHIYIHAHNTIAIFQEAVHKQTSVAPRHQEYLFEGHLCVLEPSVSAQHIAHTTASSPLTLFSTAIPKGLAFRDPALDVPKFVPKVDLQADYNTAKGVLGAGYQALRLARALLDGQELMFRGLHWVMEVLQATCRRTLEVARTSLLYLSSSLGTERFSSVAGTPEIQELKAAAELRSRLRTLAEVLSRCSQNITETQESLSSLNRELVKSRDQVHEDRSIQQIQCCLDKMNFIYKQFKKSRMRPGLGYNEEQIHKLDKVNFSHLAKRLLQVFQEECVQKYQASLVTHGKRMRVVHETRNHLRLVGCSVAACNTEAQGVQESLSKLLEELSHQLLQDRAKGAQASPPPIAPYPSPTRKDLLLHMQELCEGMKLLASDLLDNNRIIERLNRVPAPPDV
As to the kind of experiment: TR-FRET enzymatic activity assay, IKKε. Also: full length recombinant IKKε at 0.3 nM. The format is biochemical. The note with it: read-out: IKKϵ IC50. The procedure, abridged:
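Full-length recombinant IKKε phosphorylated a biotinylated Ser/Thr peptide for 240 min at 25 °C; EDTA stop. Phospho-peptide detected by TR-FRET with streptavidin-XL665 (125 nM) and Eu-cryptate anti-phospho antibody. Normalised to staurosporine and DMSO controls; IC50 from four-parameter fit, geometric mean of ≥4 runs.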

A further experiment concerns the target T2, TBK1 (Homo sapiens, UniProt Q9UHD2).
T2 construct: TBK1 and IKKε were expressed and purified as full length recombinant proteins; made in house
T2 sequence (Q9UHD2 1-729): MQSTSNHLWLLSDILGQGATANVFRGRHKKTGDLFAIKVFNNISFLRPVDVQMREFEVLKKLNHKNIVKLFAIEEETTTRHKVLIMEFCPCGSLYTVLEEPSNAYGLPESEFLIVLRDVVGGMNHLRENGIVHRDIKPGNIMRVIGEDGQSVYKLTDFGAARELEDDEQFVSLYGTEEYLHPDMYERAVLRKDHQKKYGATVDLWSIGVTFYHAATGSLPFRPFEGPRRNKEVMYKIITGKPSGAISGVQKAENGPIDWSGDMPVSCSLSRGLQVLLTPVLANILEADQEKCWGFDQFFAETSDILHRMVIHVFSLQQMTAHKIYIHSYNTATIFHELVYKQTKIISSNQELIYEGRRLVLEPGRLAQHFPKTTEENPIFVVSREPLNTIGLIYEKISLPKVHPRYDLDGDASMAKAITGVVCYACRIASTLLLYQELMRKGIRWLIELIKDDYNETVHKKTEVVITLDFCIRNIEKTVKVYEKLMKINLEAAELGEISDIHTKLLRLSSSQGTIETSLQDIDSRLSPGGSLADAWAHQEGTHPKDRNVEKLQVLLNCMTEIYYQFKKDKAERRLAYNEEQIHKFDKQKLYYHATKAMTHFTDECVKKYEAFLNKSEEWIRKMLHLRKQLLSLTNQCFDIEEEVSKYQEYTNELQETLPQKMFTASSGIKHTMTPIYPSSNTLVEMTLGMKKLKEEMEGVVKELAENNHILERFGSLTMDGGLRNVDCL
The experiment in a line: TR-FRET enzymatic activity assay, TBK1. Also: full length recombinant TBK1 at 2.5 nM. The format is biochemical. The procedure, abridged:
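Full-length recombinant enzymes phosphorylated a biotinylated Ser/Thr peptide for 240 min at 25 °C, stopped with EDTA. Phosphopeptide detected by TR-FRET (streptavidin XL665, Eu-cryptate anti-phospho antibody). IC50 from four-parameter fits normalized to 1 μM staurosporine and DMSO controls, as geometric means of at least four determinations.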

Each structure is given as a SMILES string. pIC50: −log10 of the molar value.

As to `N#Cc1cc(-c2ccnc(NC(=O)[C@H]3C[C@H]3F)c2)ccc1N1CCC(O)CC1` [Example 65, (1R,2R)—N-(4-(3-cyano-4-(4-hydroxypiperidin-1-yl)phenyl)pyridin-2-yl)-2-fluorocyclopropane-1-carboxamide], the negative-log IC50 (pIC50) at IKKε was less than 6.00; at TBK1, 6.33.

Turning to `N#Cc1cc(-c2ccnc(NC(=O)[C@@H]3C[C@H]3F)c2)ccc1O[C@H]1CCN(C(=O)CO)C[C@H]1F` [Example 62, (1S,2R)—N-(4-(3-cyano-4-(((3R,4S)-3-fluoro-1-(2-hydroxyacetyl)piperidin-4-yl)oxy)phenyl)pyridin-2-yl)-2-fluorocyclopropanecarboxamide], the pIC50 on IKKε was 7.79; against TBK1 it was 7.78.

Turning to `N#Cc1cc(-c2ccnc(NC(=O)[C@@H]3C[C@H]3C=O)c2)ccc1OC1CCOCC1` (relative stereo) [Example 40, (1,2-trans)-N-(4-(3-cyano-4-((tetrahydro-2H-pyran-4-yl)oxy)phenyl)pyridin-2-yl)-2-formylcyclopropane-1-carboxamide], the negative logarithm of the IC50 (pIC50) on IKKε was 7.19; against TBK1, 7.21.

On to `N#Cc1cc(-c2ccnc(NC(=O)C3CC3C(F)(F)F)c2)ccc1O[C@H]1CCN(C(=O)CO)C[C@H]1F` (stereo partly drawn) [Example 66, N-(4-(3-Cyano-4-(((3R,4S)-3-fluoro-1-(2-hydroxyacetyl)piperidin-4-yl)oxy)phenyl)pyridin-2-yl)-2-(trifluoromethyl)cyclopropane-1-carboxamide], for which the negative logarithm of the IC50 (pIC50) on IKKε was 6.97; on TBK1, 7.55.

Take `N#Cc1cc(-c2cc(NC(=O)C3CC3)ncn2)ccc1OC1CCN(C(=O)CO)CC1` [Example 23, N-(6-(3-cyano-4-((1-(2-hydroxyacetyl)piperidin-4-yl)oxy)phenyl)pyrimidin-4-yl)cyclopropanecarboxamide]: the pIC50 is 6.80 at IKKε and 7.18 on TBK1.

Regarding `N#Cc1cc(-c2ccnc(NC(=O)[C@H]3C[C@H](O)C3)c2)ccc1O[C@H]1CCN(C(=O)CO)C[C@H]1F` [Example 80, (1,3-trans)-N-(4-(3-Cyano-4-(((3R,4S)-3-fluoro-1-(2-hydroxyacetyl)piperidin-4-yl)oxy)phenyl)pyridin-2-yl)-3-hydroxycyclobutane-1-carboxamide], the figures for the negative logarithm of the IC50 (pIC50) at IKKε and on TBK1 were 7.12 and 6.95, respectively.

Consider `CC1(C)C[C@@H]1C(=O)Nc1cc(-c2ccc(O[C@H]3CCN(C(=O)CO)C[C@H]3F)c(C#N)c2)ccn1` [Example 69, (S)—N-(4-(3-Cyano-4-(((3R,4S)-3-fluoro-1-(2-hydroxyacetyl)piperidin-4-yl)oxy)phenyl)pyridin-2-yl)-2,2-dimethylcyclopropane-1-carboxamide], for which the pIC50 at IKKε was 6.88; against TBK1 it was 7.36.

Take `N#Cc1cc(-c2ccnc(NC(=O)C3CC3)c2)ccc1CC1CCOCC1` [Example 98, N-(4-(3-cyano-4-((tetrahydro-2H-pyran-4-yl)methyl)phenyl)pyridin-2-yl)cyclopropanecarboxamide]: the pIC50 on IKKε and on TBK1 was less than 6.00 each time.

With `N#Cc1cc(-c2ccnc(NC(=O)C3CC3c3ccco3)c2)ccc1OC1CCOCC1` (centres unmarked) [Example 51, N-(4-(3-cyano-4-((tetrahydro-2H-pyran-4-yl)oxy)phenyl)pyridin-2-yl)-2-(furan-2-yl)cyclopropane-1-carboxamide], the negative logarithm of the IC50 (pIC50) was 6.37 at IKKε and 7.24 on TBK1.

For `N#Cc1cc(-c2ccnc(NC(=O)[C@@H]3C[C@H]3c3cccnc3)c2)ccc1O[C@H]1CCN(C(=O)CO)CC1(F)F` [Example 134, (1,2-Trans)-N-(4-(3-cyano-4-(((S)-3,3-difluoro-1-(2-hydroxyacetyl)piperidin-4-yl)oxy)phenyl)pyridin-2-yl)-2-(pyridin-3-yl)cyclopropane-1-carboxamide], the negative-log IC50 (pIC50) on IKKε was 7.96; at TBK1 it was 8.13.

Regarding `N#Cc1cc(-c2cc(NC(=O)C3CC3)ncn2)ccc1O[C@H]1CCN(C(=O)CO)C[C@H]1F` [Example 19, N-(6-(3-cyano-4-(((3R,4S)-3-fluoro-1-(2-hydroxyacetyl)piperidin-4-yl)oxy)phenyl)pyrimidin-4-yl)cyclopropanecarboxamide], the pIC50 was 7.27 at IKKε and 7.81 on TBK1.

`N#Cc1cc(-c2ccnc(NC(=O)[C@@H]3C[C@H]3c3cnco3)c2)ccc1OC1CCOCC1` (relative stereo) [Example 43, (1,2-trans)-N-(4-(3-cyano-4-((tetrahydro-2H-pyran-4-yl)oxy)phenyl)pyridin-2-yl)-2-(oxazol-5-yl)cyclopropane-1-carboxamide]: the pIC50 at IKKε is 6.84; against TBK1, 7.21.

Consider `N#Cc1cc(-c2ccnc(NC(=O)[C@@H]3C[C@H]3c3cncnc3)c2)ccc1O[C@H]1CCN(C(=O)CO)C[C@H]1F` [Example 149, (1,2-Trans)-N-(4-(3-cyano-4-(((3R,4S)-3-fluoro-1-(2-hydroxyacetyl)piperidin-4-yl)oxy)phenyl)pyridin-2-yl)-2-(pyrimidin-5-yl)cyclopropane-1-carboxamide], for which the pIC50 on IKKε was 7.00; against TBK1, 7.80.

Consider `N#Cc1cc(-c2ccnc(NC(=O)[C@H]3C[C@@H]3c3cccnc3)c2)ccc1O[C@H]1CCN(C(=O)CO)CC1(F)F` [Example 142, (1S,2S)—N-(4-(3-cyano-4-(((S)-3,3-difluoro-1-(2-hydroxyacetyl)piperidin-4-yl)oxy)phenyl)pyridin-2-yl)-2-(pyridin-3-yl)cyclopropane-1-carboxamide], for which the negative-log IC50 (pIC50) is 8.22 at IKKε and 8.24 on TBK1.

Turning to `N#Cc1cc(-c2ccnc(NC(=O)[C@H]3C[C@@H]3c3cccnc3)c2)ccc1O[C@H]1CCN(C(=O)CO)C[C@H]1F` [Example 136, (1S,2S)—N-(4-(3-cyano-4-(((3R,4S)-3-fluoro-1-(2-hydroxyacetyl)piperidin-4-yl)oxy)phenyl)pyridin-2-yl)-2-(pyridin-3-yl)cyclopropane-1-carboxamide], the negative logarithm of the IC50 (pIC50) was 7.98 at IKKε and 8.46 against TBK1.

Consider `N#Cc1cc(-c2ccnc(NC(=O)[C@H]3C[C@H]3F)c2)ccc1O[C@H]1CCN(C(=O)CO)C[C@H]1F` [Example 59, (1R,2R)—N-(4-(3-cyano-4-(((3R,4S)-3-fluoro-1-(2-hydroxyacetyl)piperidin-4-yl)oxy)phenyl)pyridin-2-yl)-2-fluorocyclopropanecarboxamide], for which the figures for the negative logarithm of the IC50 (pIC50) at IKKε and on TBK1 were 7.40 and 7.47, respectively.

In the case of `N#Cc1cc(-c2ccnc(NC(=O)[C@@H]3C[C@H]3c3ccno3)c2)ccc1OC1CCOCC1` (relative stereo) [Example 102, trans-1,2-N-(4-(3-cyano-4-((tetrahydro-2H-pyran-4-yl)oxy)phenyl)pyridin-2-yl)-2-(isoxazol-5-yl)cyclopropane-1-carboxamide], the negative-log IC50 (pIC50) is 6.71 on IKKε and 7.48 against TBK1.

For the compound `N#Cc1cc(-c2cc(NC(=O)C3CC3)ncn2)ccc1OC1CCOCC1` [Example 6, N-(6-(3-cyano-4-((tetrahydro-2H-pyran-4-yl)oxy)phenyl)pyrimidin-4-yl)cyclopropanecarboxamide], the pIC50 at IKKε was 6.53; against TBK1 it was 7.31.

In the case of `N#Cc1cc(-c2ccnc(NC(=O)C3CC3)c2)ccc1OC1CCOCC1` [Example 2, N-(4-(3-cyano-4-((tetrahydro-2H-pyran-4-yl)oxy)phenyl)pyridin-2-yl)cyclopropanecarboxamide], the pIC50 is 6.94 at IKKε and 7.55 against TBK1.
